Article PMC10182601, “Biological evaluation of novel gemcitabine analog in patient-derived xenograft models of pancreatic cancer” (BMC Cancer, 2023)

Key:
[1] = In vitro metabolic stability of 4NSG in human liver microsomes; format: in vitro ADME; details: 4NSG 10 µM, liver microsomes 1 mg protein/mL, 37 °C, end of the 4 h study
Method: (§1) The metabolic stability of 4NSG was examined in the presence of PBS (pH 7.4) and human liver microsomes as previously described. Human liver microsomes were obtained from Sigma-Aldrich. 4NSG (10 µM) was spiked into PBS, or liver microsomes (1 mg protein/mL) and incubated in a shaking water bath at 37 °C for […]. Aliquots (100 µL) were taken after 0, 15, 30, 60, 120, 180, 220 and 240 min of incubation and immediately pretreated with an ice-cold methanolic solution including the internal standard, vortexed for 3 min and centrifuged (12,000 × g, 10 min). Supernatants were stored at -80 C until required for analysis.
(§2) To determine concentrations of 4NSG in PBS and human liver microsomes solutions, supernatants from PBS and human liver microsomes controls were spiked with aliquots of 0.5 μg/ml of 4NSG. The chromatographic analysis was performed according to the method described with minor modifications. The samples were prepared using aliquots of supernatants (10µL) of control (spiked), PBS, and human liver microsomes. […] A plot of the peak areas as a function of 4NSG concentration was plotted, and the linear equation of the calibration curve given as y = mx + c was determined, where y is the peak area, m is the slope, x is the concentration of 4NSG, and c is the y—intercept.

[2] = Stability of 4NSG in PBS (pH 7.4); format: physicochemical; details: 4NSG 10 µM, PBS pH 7.4, 37 °C, end of the 4 h study
Method: as §1, §2

[3] = In vitro release of 4NSG (dialysis bag, PBS pH 7.4); format: physicochemical; details: PBS pH 7.4, 37 °C
Method: Cumulative in vitro drug release studies were performed as previously described. Free 4NSG (3 mg), freshly prepared and lyophilized 4NSG-SLNs containing approximately 5 mg (suspended in 2 mL PBS) were placed in dialysis bags with molecular weight cut-off (MWCO) of 3.5 kDa) and immersed in their respective labeled 15 mL PBS, (pH 7.4) as the release medium and incubated at 37 °C. The free 4NSG, freshly prepared and lyophilized 4NSG-SLNs solutions were gently stirred at 100 rpm 1 mL aliquots were withdrawn and replenished with fresh PBS (maintained at 37 °C) at 0, 1, 2, 4, 8, and 12 h for analysis. The samples were analyzed for the presence of 4NSG using the HPLC system previously described under the HPLC analysis of 4NSG of the in vitro metabolic stability of the 4NSG section.

[4] = test system: pancreatic patient-derived xenograft (PDX) mouse model; design: method as in PMID 33015617; details: earlier work of the authors ref 22; cited from earlier work
PPCL-192 cells = assay: Cell viability (resazurin/Alamar blue), PPCL-192; format: cell-based; details: Homo sapiens; 48 h treatment
Method: (§3) PCa primary cell were cultured with Dulbecco's modified Eagle medium (DMEM) with high glucose and L-glutamine and supplemented with 10% fetal bovine serum (FBS) and 1% penicillin–streptomycin (PenStrep). Briefly, PPCL-192, PPCL-135, PPCL-46, and PPCL-68 were seeded at a density of 1 × 10^3 per well in 96-well plates in triplicates for each drug concentration level and incubated at 5% CO2 and a temperature of 37 °C [32]. At 70 -75% confluency, PPCL-192, PPCL-135, PPCL-46, and PPCL-68 cells were treated with GemHCl, 4NSG-free SLN, and 4NSG-SLN. Varying concentrations of 4NSG-SLN and 4NSG-free SLN were prepared by diluting their stock solutions with a growth medium. For GemHCl, a stock solution was prepared with phosphate-buffered saline (PBS) and serially diluted with a growth medium to prepare different concentrations: 3, 6, 12, 25, 50, and 100 µM. The cells were treated with 100 µL of each drug concentration in triplicates and incubated for 48 h. At termination, 20 µL of 0.05% resazurin sodium salt (Alamar blue®) was added and incubated at optimum conditions (5% CO2, 37 °C) for 2–4 h. GloMax® Explorer Multimode Microplate reader with a fluorescence excitation wavelength of 560/580 nm and emission wavelength of 590/610 nm was used to determine the percent viable cells per concentration calculated.

PPCL-135 cells = assay: Cell viability (resazurin/Alamar blue), PPCL-135; format: cell-based; details: Homo sapiens; 48 h treatment
Method: as §3

PPCL-46 cells = assay: Cell viability (resazurin/Alamar blue), PPCL-46; format: cell-based; details: Homo sapiens; 48 h treatment
Method: as §3

PPCL-68 cells = assay: Cell viability (resazurin/Alamar blue), PPCL-68; format: cell-based; details: Homo sapiens; 48 h treatment
Method: as §3

[5] = background statement of the introduction, no reference printed with it; cited from earlier work

| percent unchanged 4NSG in human liver microsomal solution [1] | metabolic stability of 4NSG in PBS [2] [%] | further 4NSG release in the next 2 h ([3]; 2 h to 4 h, dialysis bag) [%] | cumulative 4NSG release within the first 2 h ([3]; dialysis bag MWCO 3.5 kDa) | Compound | morphological changes to mice's liver and kidney tissues [4] | tumor growth in pancreatic PDX mouse model [4] | IC50 (PPCL-192 cells) [µM] | IC50 (PPCL-135 cells) [µM] | IC50 (PPCL-46 cells) [µM] | IC50 (PPCL-68 cells) [µM] | plasma circulation half-life [5] [min] |
| --- | --- | --- | --- | --- | --- | --- | --- | --- | --- | --- | --- |
| about 90% | 99 | 20 | about 60% | CCCCCCCCCCCCCCCCCC(=O)Nc1ccn([C@@H]2OC(CO)C(O)C2(F)F)c(=O)n1 (some centres unmarked) [4NSG, 4-(N)-stearoyl-gemcitabine] | no morphological changes | remarkably reduced tumor growth |  |  |  |  |  |
|  |  |  |  | Nc1ccn([C@@H]2O[C@H](CO)[C@@H](O)C2(F)F)c(=O)n1 [Gem, Gemcitabine] |  |  | 57 ± 1.5 | 56 ± 1.5 | 56 ± 1.8 | 57 ± 2.4 | < 15 |
